Experimental data: PMC11766795 (Marine Drugs, 2025)

What was measured:
pseudotyped virus EBOV = assay: microbe, parasite or virus in culture; format: cell-based, Zaire ebolavirus; conditions: for IC50: Zaire ebolavirus, TZM-bl, read-out: IC50 (µM) Pseudovirus, EBOV
[1] = biological target: RBD of EBOV-GP (RBD-Fc fusion protein) (Zaire ebolavirus, UniProt Q05320); assay: biochemical; format: binding
MARV (Angola, IRF0202) = assay: cells; format: cell-based, Marburg virus; conditions: Homo sapiens, Huh-7, 24 h, read-out: IC50 (µM) Infectious Virus, MARV
HIV strain, HXBc2 (HX) = format: cell-based, Human immunodeficiency virus
[2] = system: amphitropic murine leukemia virus (A-MLV); format: cell-based
pseudotyped MARV = assay: microbe, parasite or virus in culture; format: cell-based, Marburg marburgvirus; conditions: for IC50: Orthomarburgvirus marburgense, TZM-bl, read-out: IC50 (µM) Pseudovirus, MARV
[3] = system: vesicular stomatitis virus (VSV); format: cell-based
in vitro = conditions: human
[4] = system: Wild-type EBOV (Makona C07 strain, IRF0192); assay: microbe, parasite or virus in culture; format: cell-based, Ebola virus; conditions: Zaire ebolavirus, Huh-7, 48 h, read-out: IC50 (µM) Infectious Virus, EBOV

Sequence of RBD of EBOV-GP (RBD-Fc fusion protein) (Q05320 54-201 limits assumed): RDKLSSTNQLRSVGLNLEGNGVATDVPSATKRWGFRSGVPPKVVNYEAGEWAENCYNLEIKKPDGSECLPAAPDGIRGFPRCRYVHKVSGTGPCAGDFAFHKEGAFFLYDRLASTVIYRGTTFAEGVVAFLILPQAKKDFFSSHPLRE

Row | SMILES | Activity in screening against pseudotyped EBOV (pseudotyped virus EBOV) | Neutralization of pseudotyped EBOV in specificity test (pseudotyped virus EBOV) | SI, Selectivity index (CC50/IC50), EBOV (pseudotyped virus EBOV) | IC50 (pseudotyped virus EBOV) [µM] | Kd [1] [µM] | IC50 (MARV (Angola, IRF0202)) [µM] | Neutralization of pseudotyped HIV (specificity) (HIV strain, HXBc2 (HX)) | Neutralization of pseudotyped A-MLV (specificity) [2] | Activity in screening against pseudotyped MARV (pseudotyped MARV) | Neutralization of pseudotyped MARV in specificity test (pseudotyped MARV) | SI, Selectivity index (CC50/IC50), MARV (pseudotyped MARV) | IC50 (pseudotyped MARV) [µM] | Neutralization of pseudotyped VSV (specificity) [3] | CC50 (in vitro) [µM] | IC50 [4] [µM]
1 | C[C@@]12NC(=O)[C@H](Cc3c1[nH]c1ccccc31)n1c2nc2ccccc2c1=O [Compound W12, Fumiquinazoline J] | modest activities | neutralizing | 15 | ~1.68 | 91.4 | 64.5 | neither of them did so | neither of them did so | modest activities | neutralizing | 26 | 0.96 | neither of them did so | 24.8 | 15.3
2 | CC(C)=CCC[C@]1(C)[C@@H](O)CC[C@@]2(C)[C@H]1CC[C@H]1Cc3c([nH]c4ccccc34)[C@@]12C [Compound W26, Emindole SB] | modest activities | neutralizing | 7 | ~3.17 | – | 95.7 | neither of them did so | neither of them did so | modest activities | neutralizing | 10 | 2.15 | neither of them did so | 20.9 | 49.8
3 | CC(=O)OCC(=O)OC1CCC2(C)C(CCC3c4c([nH]c5ccccc45)CC32C)C1(C)CCC=C(C)C (centres unmarked) [Compound W27, Fusaindoterpene B] | modest activities | – | 7 | ~2.82 | – | 83.3 | – | – | modest activities | – | 6 | 2.63 | – | 16.3 | 33
4 | CC(=O)N[C@H](Cc1c[nH]c2ccccc12)C(=O)O [N-Ac-D-tryptophan, N-Acetyl-D-Tryptophan, reference compound] | some activity | – | – | > 48 | – | – | – | – | – | – | – | – | – | > 60 | –
5 | CC(=O)N[C@@H](Cc1c[nH]c2ccccc12)C(=O)O [N-Ac-L-tryptophan, N-Acetyl-L-Tryptophan, reference compound] | some activity | – | – | > 48 | – | – | – | – | – | – | – | – | – | > 60 | –
